Measured values: patent US10363298B2, “Immunomodulatory compounds” (priority 2014, dated 2019)
Like-named read-outs stand apart in the source and are kept apart here.

Tests used:
[1] = molecular target: multivalent forms of VcCBM and SpCBM; test: Surface plasmon resonance, summary statement for the multivalent forms; conditions: read-out: dissociation constants, SPR
Text: Tandem-repeat multivalent protein, Vc4CBM, based on the Family 40^31 sialic acid binding domain (CBM) of the nanH gene encoding the sialidase from V. cholerae, was generated using PCR-based cloning techniques as described previously^8. Oligomerisation of the CBM domain from V. cholerae nanH sialidase, and from S. pneumoniae nanA sialidase, using the trimerisation domain from the pseudaminidase protein from Pseudomonas aeruginosa was engineered as follows: the DNA fragments encoding the CBM of V. cholerae sialidase residues 25-216, and that of S. pneumoniae nanA sialidase residues 121-305, respectively, were modified at the 5′ and 3′ termini by PCR amplification using primer pairs (Table 3) to incorporate different restriction sites to link one or two copies of the CBM unit in tandem for subsequent ligation to the gene encoding the trimerization domain from P. aeruginosa pseudaminidase residues 333-438 (PaTD). The resulting fragments were cloned either into an appropriately digested pEHISTEV vector (for VcCBM fragments) or pEGFP-HISTEV vector (for SpCBM fragments) to create constructs designated as VcCBMTD, Vc2CBMTD, SpCBMTD and Sp2CBMTD, respectively (FIG. 1). […] All constructs were propagated in E. coli DH5a cells, and constructs were verified by DNA sequencing, before transforming the expression host E. coli BL21 Gold (DE3) for protein production. […]

[2] = molecular target: Vc4CBM (tandem-repeat multivalent protein of four sialic acid binding domains of V. cholerae NanH sialidase, residues 25-216, SEQ ID NO: 2) (Vibrio cholerae, UniProt A5F7A4); test: Surface plasmon resonance (Biacore T-100): binding to immobilized multivalent, biotinylated α-2,3-sialyllactose-PAA; conditions: mean ± s.d. of three replicates
Text: (§1) Tandem-repeat multivalent protein, Vc4CBM, based on the Family 40^31 sialic acid binding domain (CBM) of the nanH gene encoding the sialidase from V. cholerae, was generated using PCR-based cloning techniques as described previously^8. Oligomerisation of the CBM domain from V. cholerae nanH sialidase, and from S. pneumoniae nanA sialidase, using the trimerisation domain from the pseudaminidase protein from Pseudomonas aeruginosa was engineered as follows: the DNA fragments encoding the CBM of V. cholerae sialidase residues 25-216, and that of S. pneumoniae nanA sialidase residues 121-305, respectively, were modified at the 5′ and 3′ termini by PCR amplification using primer pairs (Table 3) to incorporate different restriction sites to link one or two copies of the CBM unit in tandem for subsequent ligation to the gene encoding the trimerization domain from P. aeruginosa pseudaminidase residues 333-438 (PaTD). The resulting fragments were cloned either into an appropriately digested pEHISTEV vector (for VcCBM fragments) or pEGFP-HISTEV vector (for SpCBM fragments) to create constructs designated as VcCBMTD, Vc2CBMTD, SpCBMTD and Sp2CBMTD, respectively (FIG. 1). […] All constructs were propagated in E. coli DH5a cells, and constructs were verified by DNA sequencing, before transforming the expression host E. coli BL21 Gold (DE3) for protein production.
(§2) Expression of engineered mCBMs was performed as described previously^8 with some modifications. Briefly, E. coli cells containing either His-tagged VcCBMs or GFP-His-tagged SpCBMs were lysed in a buffer containing PBS, 0.3M NaCl and 10 mM imidazole with DNAase (20 μg/ml) and protease (minus EDTA) inhibitor tablets (Roche). Clarified lysates were applied onto a HisTrap HP column, pre-charged with nickel (GE Healthcare) before elution of histidine-tagged CBMs using PBS containing 0.3 M NaCl and 250 mM imidazole. Removal of tag, unless otherwise stated, was performed by digestion in situ with TEV protease overnight before re-applying material to the nickel column. All mCBM proteins were further purified using size exclusion chromatography with a HiPrep 16/60 Sephacryl S200HR column (GE Healthcare) in PBS before using either a Vivapure S Maxi H (VcCBMs) or Q Maxi H (SpCBMs) column (Sartorius) to remove endotoxins. GFP-tagged proteins were also subjected to affinity chromatography and size exclusion chromatography as described above. […] Protein purity and size were verified by 12% SDS polyacrylamide gel electrophoresis and mass spectrometry. Purified mCBMs binding to sialic acid was verified by surface plasmon resonance (Biacore T-100, University of Edinburgh) using a streptavidin-coated biosensor chip immobilized with a multivalent, biotinylated α-2,3-sialyllactose-PAA (Glycotech) (Table 1).

[3] = molecular target: VcCBMTD (CBM of V. cholerae NanH sialidase, residues 25-216, SEQ ID NO: 2, fused to trimerisation domain of P. aeruginosa pseudaminidase, residues 333-438, SEQ ID NO: 6) (Vibrio cholerae, UniProt A5F7A4); test: as above; conditions: mean ± s.d. of three replicates
Text: as §1, §2

[4] = molecular target: Vc2CBMTD (two tandem CBMs of V. cholerae NanH sialidase, residues 25-216, SEQ ID NO: 2, fused to trimerisation domain of P. aeruginosa pseudaminidase, residues 333-438, SEQ ID NO: 6) (Vibrio cholerae serotype O1, UniProt A5F7A4); test: as above; conditions: mean ± s.d. of three replicates
Text: as §1, §2

[5] = molecular target: influenza virus haemagglutinin (HA) monomer (Influenza A virus, UniProt P03437); conditions: read-out: affinity for its receptor; cited from earlier work
[6] = read-out: ka (association ('on') rate constant), 15 °C
[7] = read-out: ka (association ('on') rate constant), 25 °C
[8] = read-out: ka (association ('on') rate constant), 37 °C
[9] = read-out: kd (dissociation ('off') rate constant), 15 °C
[10] = read-out: kd (dissociation ('off') rate constant), 25 °C
[11] = read-out: kd (dissociation ('off') rate constant), 37 °C

Molecule `CC(=O)N[C@H]1[C@H]([C@H](O)[C@H](O)CO)O[C@@](O[C@H]2[C@@H](O)[C@@H](CO)O[C@@H](O[C@H]3[C@H](O)[C@@H](O)C(O)O[C@@H]3CO)[C@@H]2O)(C(=O)O)C[C@@H]1O` (stereo partly drawn) [α-2,3-sialyllactose] has a Kd [1] of under 1 nM, a kon [2, 6] of 540000 ± 10000 M⁻¹ s⁻¹ and a kon [2, 7] of 3.56e+06 ± 20000 M⁻¹ s⁻¹. For the same molecule, the kon [2, 8] was 2.98e+06 ± 20000 M⁻¹ s⁻¹, the koff [2, 9] was 0.00051 ± 1e-05 s⁻¹ and the koff [2, 10] was 0.0016 ± 1e-05 s⁻¹. For the same molecule, the koff [2, 11] was 0.00541 ± 4e-05 s⁻¹, the kon [3, 6] was 2.55e+06 ± 20000 M⁻¹ s⁻¹ and the kon [3, 7] was 7.24e+06 ± 60000 M⁻¹ s⁻¹. The kon [3, 8] was 2.07e+07 ± 540000 M⁻¹ s⁻¹, the koff [3, 9] was 0.0042 ± 2e-05 s⁻¹ and the koff [3, 10] was 0.0124 ± 0.0001 s⁻¹. It also gave a koff [3, 11] of 0.107 s⁻¹, a kon [4, 6] of 1.83e+06 ± 10000 M⁻¹ s⁻¹ and a kon [4, 7] of 1.73e+06 ± 10000 M⁻¹ s⁻¹. It also gave a kon [4, 8] of 8.45e+06 ± 50000 M⁻¹ s⁻¹, a koff [4, 9] of 0.00033 ± 1e-05 s⁻¹ and a koff [4, 10] of 0.0007 ± 1e-05 s⁻¹. It also gave a koff [4, 11] of 0.00207 ± 1e-05 s⁻¹.

For sialic acid, the Kd [5] is listed as about 2.5 mM.
